Measurements taken from paper PMC6627849, “Distant Non-Obvious Mutations Influence the Activity of a Hyperthermophilic Pyrococcus furiosus Phosphoglucose Isomerase” (Biomolecules, 2019).
Numbering of substitutions follows the chain as printed. Numbers in names are those of the source.

B1: PfPGI mutant P132R/Y133G (cupin-type phosphoglucose isomerase of Pyrococcus furiosus) (enzyme)
chain: MYKEPFGVKVDFETGIIEGAKKSVRRLSDMEGYFVDERAWKELVEKEDPVVYEVYAVEQEEKEGDLNFATTVLYPGKVGKEFFFTKGHFHAKLDRAEVYVALKGKGGMLLQTPEGDAKWISMEPGTVVYVPRGWAHRTVNIGDEPFIFLAIYPADAGHDYGTIAEKGFSKIVIEENGEVKVVDNPRWKK
notes: cupin-type phosphoglucose isomerase (PfPGI, EC 5.3.1.9), gene pgiA, Pyrococcus furiosus; monomeric subunit 21.5 kDa; the models have no missing residues, residues up to Lys189 are named; Crystallised with MnCl2 and F6P; 5PAA found in the active site; also called RG; mutant RG; source: E. coli (pET24d), overexpressed and purified as described previously [32]
B2: PfPGI mutant P132V (cupin-type phosphoglucose isomerase of Pyrococcus furiosus) (enzyme)
chain: B1 chain with R132V, G133Y
notes: cupin-type phosphoglucose isomerase (PfPGI, EC 5.3.1.9), gene pgiA, Pyrococcus furiosus; monomeric subunit 21.5 kDa; the models have no missing residues, residues up to Lys189 are named; Crystals grown with MnCl2 and soaked with F6P; also called VY; mutant VY; source: E. coli (pET24d), overexpressed and purified as described previously [32]
B3: PfPGI mutant P132A/Y133G (cupin-type phosphoglucose isomerase of Pyrococcus furiosus) (enzyme)
chain: B1 chain with R132A
notes: cupin-type phosphoglucose isomerase (PfPGI, EC 5.3.1.9), gene pgiA, Pyrococcus furiosus; monomeric subunit 21.5 kDa; the models have no missing residues, residues up to Lys189 are named; Crystallised with MnCl2 and F6P; 5PAA found in the active site; The two subunits of the dimer are related by crystal symmetry; also called AG; mutant AG; source: E. coli (pET24d), overexpressed and purified as …
B4: PfPGI mutant P132A/Y133D (cupin-type phosphoglucose isomerase of Pyrococcus furiosus) (enzyme)
chain: B1 chain with R132A, G133D
notes: cupin-type phosphoglucose isomerase (PfPGI, EC 5.3.1.9), gene pgiA, Pyrococcus furiosus; monomeric subunit 21.5 kDa; the models have no missing residues, residues up to Lys189 are named; Structure holds only Mn2+ in the active site; also called AD; mutant AD; source: E. coli (pET24d), overexpressed and purified as described previously [32]

Assays:
[1] = biological target: T1, PfPGI (cupin-type phosphoglucose isomerase) (Pyrococcus furiosus, UniProt P83194, P132A/Y133G); experiment: EPR of Mn2+ coordination on adding F6P; type: binding; settings: 10 mM F6P, 0.2 mM MnCl2, pH 8.0; spectra at 13 K
T1 construct: gene pgiA; pgiA in pET24d, expressed in E. coli, heat treatment plus Q-Sepharose and Superdex 200
T1 sequence (P83194 whole entry P132A/Y133G): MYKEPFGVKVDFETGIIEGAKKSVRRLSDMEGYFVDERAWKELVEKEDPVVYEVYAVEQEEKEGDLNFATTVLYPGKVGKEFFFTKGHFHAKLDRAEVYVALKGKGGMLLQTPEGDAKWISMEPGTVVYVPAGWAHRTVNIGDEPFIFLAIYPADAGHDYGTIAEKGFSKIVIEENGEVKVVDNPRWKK

[2] = biological target: T2, PfPGI (cupin-type phosphoglucose isomerase) (Pyrococcus furiosus, UniProt P83194, P132R/Y133G); experiment: EPR of Mn2+ coordination on adding F6P; type: binding; settings: 10 mM F6P, 0.2 mM MnCl2, pH 8.0; spectra at 13 K
T2 construct: gene pgiA; pgiA in pET24d, expressed in E. coli, heat treatment plus Q-Sepharose and Superdex 200

[3] = biological target: T3, PfPGI (cupin-type phosphoglucose isomerase) (Pyrococcus furiosus, UniProt P83194, P132A/Y133D); experiment: EPR of Mn2+ coordination on adding F6P; type: binding; settings: 10 mM F6P, 0.2 mM MnCl2, pH 8.0; spectra at 13 K; F6P not seen in the crystal structure
T3 construct: gene pgiA; pgiA in pET24d, expressed in E. coli, heat treatment plus Q-Sepharose and Superdex 200
T3 sequence (P83194 whole entry P132A/Y133D): as the sequence (P83194 whole entry P132A/Y133G) above, with G133D counted along it

[4] = biological target: T2, PfPGI (cupin-type phosphoglucose isomerase); experiment: X-ray crystal structure; type: binding; settings: Mn2+ in active site; 5PAA formed from F6P in the crystallization solution; pH 5.5
[5] = biological target: the molecule itself; experiment: crystal structure; PfPGI mutants at 11.5 mg/mL in 10 mM Tris/HCl pH 8.0, 50 mM F6P, 5 mM MnCl2; molecular replacement with wild-type PfPGI (PDB 1X82); RG, AD and VY with chains A and B, AG with the two subunits related by crystal symmetry

Molecule | binding result [5] | other results
O=P(O)(O)OC[C@H]1OC(O)(CO)[C@@H](O)[C@@H]1O (some centres unmarked) [F6P, fructose-6-phosphate] | – | EPR of Mn2+ coordination on adding F6P [1]: addition of F6P to any of the manganese-containing PfPGI mutants lead to a collapse; EPR of Mn2+ coordination on adding F6P [2]: addition of F6P to any of the manganese-containing PfPGI mutants lead to a collapse; EPR of Mn2+ coordination on adding F6P [3]: addition of F6P to any of the manganese-containing PfPGI mutants lead to a collapse
O=C(O)[C@@H](O)[C@H](O)[C@H](O)COP(=O)(O)O [5PAA, 5-phosphoarabinonic acid] | – | X-ray crystal structure [4]: 5-phosphoarabinonic acid (5PAA), rather than F6P (as added to the crystallization mixture) was bound
B1 | binds | –
B2 | binds | –
B3 | binds | –
B4 | binds | –
